Assay results as given in US9434728B1, “Nitrogen containing compounds and their use” (WOCKHARDT LIMITED, priority 2013, dated 2016).
Values after ≈ are worked out from the molar mass of the structure shown.

Assays:
Type in all cases: cell-based
K. pneumoniae J102 = assay: Antibacterial activity in combination with Ceftazidime, agar dilution MIC; details: Klebsiella pneumoniae; agent alone; K. pneumoniae J102, ESBL TEM-1, SHV-5, OMP
Description: (§1) The biological activity of representative compounds according to the invention against various bacterial strains was investigated. In a typical study, overnight grown bacterial cultures were diluted appropriately and inoculated on the agar media containing doubling dilutions of the test compounds. Observations for growth or no growth was performed after 16-20 hours of incubation at 35±2° C. in the ambient air. The overall procedure was performed as per Clinical and Laboratory Standards Institute (CLSI) recommendations (Clinical and Laboratory Standards Institute (CLSI), Performance Standards for Antimicrobial Susceptibility Testing, 20th Informational Supplement, M 100-S20, Volume 30, No. 1, 2010). […] The Compound (XI), which is the free zwitterionic form of Compound (X), was also studied for the antibacterial activity profile.
(§2) The antibacterial activity of the Compound (XI) was also studied in combination with other beta-lactam antibacterial agents. […] The antibacterial activity of the combination of Compound (XI) (4 μg/ml) and Ceftazidime was compared with (i) combination of Cetftazidime and Avibactam (4 μg/ml); and (ii) Imipenem alone.

E. coli H483 = assay: as above; details: Escherichia coli; agent alone; E. coli H483, ESBL CMY-2
Description: as §1, §2

[1] = tested on: K. pneumoniae ATCC 700603; assay: as above; details: Klebsiella pneumoniae, ATCC700603; agent alone; K. pneumoniae ATCC 700603, ESBL SHV-18
Description: as §1, §2

K. pneumoniae J101 = assay: as above; details: Klebsiella pneumoniae; agent alone; K. pneumoniae J101, ESBL TEM-1, SHV-12, OMP
Description: as §1, §2

K. pneumoniae (S48) = assay: Antibacterial activity, agar dilution MIC (CLSI); details: Klebsiella pneumoniae, ESBL NDM, SHV
Description: as §1

P. aeruginosa (MBL18) = assay: Antibacterial activity, agar dilution MIC (CLSI); details: Pseudomonas aeruginosa, ESBL VIM
Description: as §1

E. coli (NCTC 13352) = assay: Antibacterial activity, agar dilution MIC (CLSI); details: Escherichia coli, NCTC13352, ESBL TEM 10
Description: as §1

E. coli (7MP) = assay: Antibacterial activity, agar dilution MIC (CLSI); details: Escherichia coli, ESBL SHV, CMY
Description: as §1

K. pneumoniae (H521) = assay: Antibacterial activity, agar dilution MIC (CLSI); details: Klebsiella pneumoniae, ESBL KPC
Description: as §1

E. coli (NCTC 13353) = assay: Antibacterial activity, agar dilution MIC (CLSI); details: Escherichia coli, NCTC13353, ESBL CTXM-15
Description: as §1

[2] = tested on: resistant ESBL strains of K. pneumoniae, E. coli and P. aeruginosa; assay: Antibacterial activity profile
Description: as §1

MIC (K. pneumoniae J102)	MIC (E. coli H483)	MIC [1]	MIC (K. pneumoniae J101)	MIC (K. pneumoniae (S48))	MIC (P. aeruginosa (MBL18))	MIC (E. coli (NCTC 13352))	MIC (E. coli (7MP))	MIC (K. pneumoniae (H521))	MIC (E. coli (NCTC 13353))	Structure (SMILES)	antibacterial activity (in words) [2]
8 mg/L	0.25 mg/L	0.12 mg/L	2 mg/L	16 mg/L (≈ 53.4 µM)	16 mg/L (≈ 53.4 µM)	0.25 mg/L (≈ 0.835 µM)	1 mg/L (≈ 3.34 µM)	16 mg/L (≈ 53.4 µM)	0.25 mg/L (≈ 0.835 µM)	C[C@@H](O)[C@H]1C(=O)N2C(C(=O)O)=C(SCCN=CN)C[C@H]12 [Imipenem]	
> 32 mg/L	> 32 mg/L	16 mg/L	> 32 mg/L	> 32 mg/L	> 32 mg/L	> 32 mg/L	> 32 mg/L	> 32 mg/L	> 32 mg/L	CC(C)(O/N=C(\C(=O)N[C@@H]1C(=O)N2C(C(=O)[O-])=C(C[n+]3ccccc3)CS[C@H]12)c1csc(N)n1)C(=O)O [Ceftazidime]	
				1 mg/L (≈ 3.98 µM)	8 mg/L (≈ 31.8 µM)	2 mg/L (≈ 7.96 µM)	4 mg/L (≈ 15.9 µM)	1 mg/L (≈ 3.98 µM)	1 mg/L (≈ 3.98 µM)	NC[C@@H]1CC[C@@H]2CN1C(=O)N2OS(=O)(=O)O [Compound (XI), (2S, 5R)-6-sulfooxy-2-(aminomethyl)-7-oxo-1,6-diaza-bicyclo[3.2.1]octane]	good antibacterial activity
				> 32 mg/L	> 32 mg/L	2 mg/L (≈ 4.16 µM)	16 mg/L (≈ 33.3 µM)	> 32 mg/L	> 32 mg/L	CO/N=C(\C(=O)N[C@@H]1C(=O)N2C(C(=O)[O-])=C(C[N+]3(C)CCCC3)CS[C@H]12)c1csc(N)n1 [Cefepime]	
